The record followed here is article PMC5215716, “A Target-Based Whole Cell Screen Approach To Identify Potential Inhibitors of Mycobacterium tuberculosis Signal Peptidase” (ACS Infectious Diseases, 2016).

The structures appear in SMILES notation. In brackets after ≈: the same amount, converted by molar mass.

This test has as its system M. tuberculosis strain expressing LepB under the hsp60 promotor (LepB-OE). Nature of the test: microbe, parasite or virus in culture. The test is classed as cell-based. To be noted: Mycobacterium tuberculosis, average ± SD of at least two experiments.
Take `C/C(=N\NC(=O)C1CC1)c1ccccn1` [Compound 40]: the MIC was found to be 27 ± 2 µM (≈ 5.49 µg/mL).

Turning to `C/C(=N\NC(=N)c1ccccn1)c1ccccn1` [Compound 30], the MIC was greater than 200 µM.

In the case of `C/C(=N\NC(=O)c1ccoc1C)c1ccccn1` [Compound 39], the MIC amounted to 6.5 ± 2.2 µM (≈ 1.58 µg/mL).

For `Cc1cc(C)nc(NN=C(c2ccccc2)c2ccccc2)n1` [Compound 27], the MIC is 103 ± 38 µM (≈ 31.1 µg/mL).

The compound `C/C(=N\NC(=O)c1ccc(N2CCCC2=O)cc1)c1ccccn1` [Compound 11] registered an MIC of 5.6 ± 0.6 µM (≈ 1.81 µg/mL).

`Oc1ccccc1/C=N/Nc1nc(-c2ccccc2)cs1` [Compound 2] gave an MIC of 160 ± 57 µM (≈ 47.3 µg/mL).

The compound `C/C(=N\Nc1nc(C)cc(C)n1)c1ccccn1` [Compound 1] displayed an MIC of 18 ± 8 µM (≈ 4.34 µg/mL).

For the compound `C/C(=N\NC(=O)C1CCCN(S(=O)(=O)c2ccccc2)C1)c1ccccn1` (centres unmarked) [Compound 38], the MIC is 9.2 ± 4 µM (≈ 3.56 µg/mL).
